Laboratory results taken from patent publication US20050054726A1, “Vaccine” (priority 2001, published 2005).

Experiments:
CD8+ T cells = test: CD8+ T cell-restricted IFN-γ / IL-2 ELISPOT assay of splenocytes after prime-boost PMID; format: in vivo, C57B1/6 mice
Procedure: Controls contained pVAC1 (0.5 μg plasmid DNA/cartridge) only.
Spleens were collected 12 days later for T cell assays.
The cytotoxic T cell response was assessed by CD8+ T cell-restricted IFN-γ ELISPOT assay of splenocytes. Mice were killed by cervical dislocation and spleens were collected into ice-cold PBS. […] After two washes in PBS to remove particulate matter the single cell suspension was aliquoted into ELISPOT plates previously coated with capture IFN-γ or IL-2 antibody and stimulated with CD8-restricted cognate peptide. After overnight culture, IFN-γ producing cells were visualised by application of anti-murine IFN-γ-biotin labelled antibody (Pharmingen) followed by streptavidin-conjugated alkaline phosphatase and quantitated using image analysis.

[1] = system: ovalbumin-specific CD4+ T cells; test: In vivo clonal expansion of ovalbumin-specific CD4+ T cells after PMID immunisation (adoptive transfer model, flow cytometry KJ1+ CD4+); parameters: species or system mice
Procedure: (§1) Twenty four hours later, minipumps containing 1400W (delivering 10 mg/kg per hour), or sterile water (controls), were implanted subcutaneously into mice under anaesthesia. Mice were then immediately immunised by PMID with two cartridges of either pVAC1.0VA or empty vector (1 μg plasmid DNA/mouse).
(§2) Five days later, mice were killed by cervical dislocation and inguinal and periaortic lymph nodes were collected and prepared as for splenocytes (described above), except that the red blood cell lysis step was omitted. To measure the in vivo clonal expansion of CD4+ T cells induced by immunisation, the proportion of ovalbumin-specific T cells was assessed ex vivo in the lymph node cell preparations. Briefly, an aliquot of lymph node cells from each individual mouse was processed for flow cytometry analysis (Coulter XL) using KJ1.26 (0.2 μg, Caltag) and anti-CD4 (0.5 μg, Sigma).

IFN-γ producing cells = test: ELISPOT of IFN-γ (Th1) producing CD4+ T cells from lymph nodes; format: in vivo, mice; settings: combination pVAC1.OVA + 1400W; FIG. 3
Procedure: as §1, §2
(§3) Th CD4+ subsets were assessed by ELISPOT analyses of CD4+ T cells producing IFN-γ (Th1) and IL-4 (Th2). Briefly, lymph node cell suspension was aliquoted into ELISPOT plates previously coated with capture IFN-γ or IL-4 antibody and stimulated with ovalbumin cognate peptide.

IL-4 producing cells = test: ELISPOT of IL-4 (Th2) producing CD4+ T cells from lymph nodes; format: in vivo, mice; settings: combination of 1400W with pVAC1.OVA vs pVAC1.OVA + vehicle; FIG. 2
Procedure: as §1, §2, §3

iNOS = iNOS (Homo sapiens, UniProt P35228); settings: category per Alderton et al., Biochem J. (2001) 357, 593-615; cited from earlier work

| Structure (SMILES) | number of IFN-γ- or IL-2-producing CD8+ T cells in the spleens (CD8+ T cells; control plasmid (pVAC1) + 1400W vs vehicle) | number of IFN-γ- or IL-2-producing CD8+ T cells in the spleens (CD8+ T cells; pVAC1.OVAcyt + 1400W relative to pVAC1.OVAcyt + vehicle, 12 days after boost, FIG. 4) | clonal expansion of CD4+ T cells ([1]; empty vector + 1400W vs empty vector + vehicle) | clonal expansion of CD4+ T cells ([1]; pVAC1.OVA + 1400W (minipump, 10 mg/kg per hour) vs pVAC1.OVA + vehicle, lymph nodes, five days after PMID, Figure one) | increase in number of IFN-γ producing cells (IFN-γ producing cells) | number of IL-4 producing cells (IL-4 producing cells) | selectivity category of iNOS inhibitor (iNOS) |
| --- | --- | --- | --- | --- | --- | --- | --- |
| CC(=N)NCc1cccc(CN)c1 [1400W, N-[3-(aminomethyl)benzyl] acetamidine] | No differences | twice | No difference | substantial increase | 2-4 times | no effect to a modest almost 2 fold increase |  |
| CC(=N)NCCSCC[C@H](N)C(=O)O [GW274150, S-[2-(1-iminoethylamino)ethyl]-L-homocysteine] |  |  |  |  |  |  | highly selective (compounds of over 50-fold selectivity are regarded as highly selective) |
| CC(=N)NCCCC[C@H](N)C(=O)O [L-NIL, reference compound] |  |  |  |  |  |  | partially selective (Inhibitors which have a 10-50-fold selectivity are regarded as partially selective inhibitors) |
